In ChEMBL document CHEMBL1201862, “PubChem BioAssay data set” (2004):
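Interpolation was linear, between the two tested concentrations surrounding the appropriate level; five concentrations were tested over 48 hours in 96-well plates. GI50 is the concentration that inhibits growth by half.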 Active and inactive are the calls of the source. Rule as the data show it: active = GI50 up to about 1.1 µM and inactive = higher.

How the values were obtained:
Experiment in all cases: NCI tumour cell line growth inhibition, 48 h
[1] = system: 786-0
[2] = system: ACHN
[3] = system: BT-549
[4] = system: HCC 2998
[5] = system: HOP-92
[6] = system: KM12
[7] = system: M14
[8] = system: MCF7
[9] = system: MDA-MB-435
[10] = system: MDA-N
[11] = system: NCI-H522
[12] = system: NCI/ADR-RES
[13] = system: OVCAR-4
[14] = system: OVCAR-5
[15] = system: PC-3
[16] = system: SF-539
[17] = system: SK-MEL-28
[18] = system: SNB-75
[19] = system: UACC-257
[20] = system: UO-31

`COCn1c(=O)n(C)c(=O)c2c1nc1c(c(=O)n(C)c(=O)n1COC)[n+]2[O-]` was tested, and the GI50 [1] was 18.4 µM (inactive), the GI50 [2] was 5.73 µM (inactive) and the GI50 [3] was 10.3 µM (inactive). For the same molecule, the GI50 [4] was 5.33 µM (inactive), the GI50 [5] was 3.61 µM (inactive) and the GI50 [6] was 13.3 µM (inactive). The GI50 [7] was 10.3 µM (inactive), the GI50 [8] was 20.4 µM (inactive) and the GI50 [9] was 5.75 µM (inactive). For the same molecule, the GI50 [10] was 4.32 µM (inactive), the GI50 [11] was 8.97 µM (inactive) and the GI50 [12] was 59 µM (inactive). The GI50 [13] was 4.85 µM (inactive), the GI50 [14] was 25.1 µM (inactive) and the GI50 [15] was 5.07 µM (inactive). The GI50 [16] was 14.6 µM (inactive), the GI50 [17] was 35.9 µM (inactive) and the GI50 [18] was 2.75 µM (inactive). The GI50 [19] was 18.2 µM (inactive) and the GI50 [20] was 24.9 µM (inactive).
`COc1ccc2nc3cc(Cl)ccc3c(Nc3ccccc3-c3ccccc3Nc3c4ccc(Cl)cc4nc4ccc(OC)cc34)c2c1` was tested, and the GI50 [1] was 26.7 µM (inactive), the GI50 [2] was > 29.4 µM (inactive) and the GI50 [3] was 15.9 µM (inactive). For the same molecule, the GI50 [4] was 31.6 µM (inactive), the GI50 [5] was 31.8 µM (inactive) and the GI50 [6] was 22.7 µM (inactive). The GI50 [7] was 43.6 µM (inactive), the GI50 [8] was 40.8 µM (inactive) and the GI50 [9] was 8.32 µM (inactive). The GI50 [10] was 3.43 µM (inactive), the GI50 [11] was 8.43 µM (inactive) and the GI50 [12] was 13.6 µM (inactive). The GI50 [13] was 17.4 µM (inactive), the GI50 [14] was 37.8 µM (inactive) and the GI50 [15] was 11.3 µM (inactive). The GI50 [16] was 24.2 µM (inactive), the GI50 [17] was 41.8 µM (inactive) and the GI50 [18] was 14.7 µM (inactive). The GI50 [19] was 27.5 µM (inactive) and the GI50 [20] was 26.9 µM (inactive).
`CC(C)C(C/C=C1/CC(CO)(COC(=O)c2ccccc2)OC1=O)C(C)C` (stereo not given) was tested, and the GI50 [1] was 11 µM (inactive), the GI50 [2] was 13.9 µM (inactive) and the GI50 [3] was 18.3 µM (inactive). The GI50 [4] was 18.8 µM (inactive), the GI50 [5] was 17.5 µM (inactive) and the GI50 [6] was 15.9 µM (inactive). For the same molecule, the GI50 [7] was 15.7 µM (inactive), the GI50 [8] was 19.6 µM (inactive) and the GI50 [9] was 26 µM (inactive). For the same molecule, the GI50 [10] was 15.7 µM (inactive), the GI50 [11] was 19.9 µM (inactive) and the GI50 [12] was 19.2 µM (inactive). For the same molecule, the GI50 [13] was 15 µM (inactive), the GI50 [14] was 16.9 µM (inactive) and the GI50 [15] was 13.6 µM (inactive). The GI50 [16] was 4.69 µM (inactive), the GI50 [17] was 14.1 µM (inactive) and the GI50 [18] was 7.5 µM (inactive). The GI50 [19] was 24.8 µM (inactive) and the GI50 [20] was 16.3 µM (inactive).
`Cc1occc1/C(S)=N\c1ccc(Cl)c(C(=O)OCC(F)(F)F)c1` was tested, and the GI50 [1] was 18.7 µM (inactive), the GI50 [2] was 21.8 µM (inactive) and the GI50 [3] was 20.5 µM (inactive). For the same molecule, the GI50 [4] was 18.7 µM (inactive), the GI50 [5] was 17.4 µM (inactive) and the GI50 [6] was 20.8 µM (inactive). For the same molecule, the GI50 [7] was 33.7 µM (inactive), the GI50 [8] was 12.2 µM (inactive) and the GI50 [9] was 20.3 µM (inactive). The GI50 [10] was 29 µM (inactive), the GI50 [11] was 20.4 µM (inactive) and the GI50 [12] was 17.8 µM (inactive). The GI50 [13] was 17.9 µM (inactive), the GI50 [14] was 34.6 µM (inactive) and the GI50 [15] was 23.7 µM (inactive). For the same molecule, the GI50 [16] was 4.31 µM (inactive), the GI50 [17] was 21.5 µM (inactive) and the GI50 [18] was 24.1 µM (inactive). The GI50 [19] was 23.4 µM (inactive) and the GI50 [20] was 19.4 µM (inactive).
For `CC1=CC(=O)[C@@H](O)[C@]2(C)[C@H]3[C@@]4(O)OC[C@]35[C@H]([C@@H](C)[C@H]4O)[C@@H](O)C(=O)O[C@@H]5C[C@@H]12`, the GI50 [1] was 0.349 µM (active), the GI50 [2] was 0.348 µM (active) and the GI50 [3] was 0.318 µM (active). For the same molecule, the GI50 [4] was 0.227 µM (active), the GI50 [5] was 0.327 µM (active) and the GI50 [6] was 0.202 µM (active). The GI50 [7] was 0.25 µM (active), the GI50 [8] was 0.0382 µM (active) and the GI50 [9] was 0.232 µM (active). The GI50 [10] was 0.213 µM (active), the GI50 [11] was 0.181 µM (active) and the GI50 [12] was 2.29 µM (inactive). The GI50 [13] was 0.597 µM (active), the GI50 [14] was 0.706 µM (active) and the GI50 [15] was 0.293 µM (active). For the same molecule, the GI50 [16] was 0.0743 µM (active), the GI50 [17] was 0.156 µM (active) and the GI50 [18] was 0.0706 µM (active). For the same molecule, the GI50 [19] was 0.276 µM (active) and the GI50 [20] was 0.416 µM (active).
